Experimental findings from ChEMBL document CHEMBL5360604, “Novel Dihydroorotate Dehydrogenase Inhibitors for Treating Acute Myelogenous Leukemia” (ACS Med Chem Lett, 2023) are described below.

pIC50: −log10 of the molar value.

For the assay, the system named is MOLM-13. Briefly: Antiproliferative activity against human MOLM-13 cells assessed as reduction in cell viability incubated for 72 hrs by CellTiter-Glo assay. In kind it is functional, cell-based. The settings on record: MOLM-13, 72 h.
For the compound `Cc1cn(-c2cc(O[C@@H](C)C(F)(F)F)c(C(=O)Nc3c(C)n[nH]c3Cl)cc2F)nc1C(C)(C)O`, the pIC50 was 10.05.
As to `Cc1cn(-c2cc(O[C@@H](C)C(F)(F)F)c(C(=O)Nc3c(C)n[nH]c3Cl)cc2F)nc1[C@H](C)O`, the pIC50 is 9.68.
The result for `Cc1cn(-c2cc(O[C@@H](C)C(F)(F)F)c(C(=O)Nc3c(F)cccc3Cl)cc2F)nc1[C@H](C)O` reads 10.52; that for `Cc1cn(-c2cc(O[C@@H](C)C(F)(F)F)c(C(=O)Nc3c(F)cccc3Cl)cc2F)nc1C(C)(C)O`, 10.15.
For the compound `Cc1cn(-c2cc(O[C@@H](C)C(F)(F)F)c(C(=O)Nc3c(C)n[nH]c3Cl)cc2F)nc1[C@@H](C)O`, the pIC50 is 9.59.
`Cc1cn(-c2cc(O[C@@H](C)C(F)(F)F)c(C(=O)Nc3c(F)cccc3Cl)cc2F)nc1[C@@H](C)O`: the pIC50 was 10.10.

The term pIC50 denotes −log10 of the IC50, conventionally taken in molar units.
